pKi: −log10 of the molar value.
Legend:
[1] = target: Kappa-type opioid receptor (Homo sapiens, UniProt P41145); experiment: Displacement of [3H]U-69593 from human recombinant kappa opioid receptor expressed in CHO cells; assay type: cell-based
Mu-type opioid receptor = Mu-type opioid receptor (Rattus norvegicus, UniProt P33535); experiment: Displacement of [3H]DAMGO from rat recombinant mu opioid receptor expressed in C6 cells; assay type: cell-based
Rattus norvegicus = organism: Rattus norvegicus; experiment: Selectivity for rat recombinant delta opioid receptor over rat recombinant mu opioid receptor
[2] = target: Delta-type opioid receptor (Rattus norvegicus, UniProt P33533); experiment: Displacement of [3H]p-Cl-DPDPE from rat recombinant delta opioid receptor expressed in C6 cells; assay type: cell-based
Sequence of Delta-type opioid receptor (P33533 whole entry): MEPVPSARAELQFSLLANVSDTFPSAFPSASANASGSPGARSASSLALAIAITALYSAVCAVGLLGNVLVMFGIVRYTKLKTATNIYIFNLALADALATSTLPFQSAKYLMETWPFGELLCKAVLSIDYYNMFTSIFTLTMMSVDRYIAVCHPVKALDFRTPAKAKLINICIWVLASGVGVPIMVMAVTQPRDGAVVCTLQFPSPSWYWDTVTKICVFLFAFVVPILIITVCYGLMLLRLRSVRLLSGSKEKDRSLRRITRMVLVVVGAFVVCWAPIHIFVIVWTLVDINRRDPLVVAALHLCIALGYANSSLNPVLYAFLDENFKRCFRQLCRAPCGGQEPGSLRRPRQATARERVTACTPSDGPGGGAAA

Sequence of Kappa-type opioid receptor (P41145 whole entry): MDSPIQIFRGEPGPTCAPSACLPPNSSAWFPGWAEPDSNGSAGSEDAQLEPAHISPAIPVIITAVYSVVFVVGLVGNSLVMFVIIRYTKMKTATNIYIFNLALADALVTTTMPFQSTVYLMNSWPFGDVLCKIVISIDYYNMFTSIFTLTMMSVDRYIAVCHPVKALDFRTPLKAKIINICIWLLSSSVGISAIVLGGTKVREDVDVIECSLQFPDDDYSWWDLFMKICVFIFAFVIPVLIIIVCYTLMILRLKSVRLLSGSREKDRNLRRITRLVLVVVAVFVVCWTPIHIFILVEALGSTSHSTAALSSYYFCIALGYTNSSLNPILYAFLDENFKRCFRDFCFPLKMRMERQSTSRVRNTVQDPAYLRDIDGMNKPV
Sequence of Mu-type opioid receptor (P33535 whole entry): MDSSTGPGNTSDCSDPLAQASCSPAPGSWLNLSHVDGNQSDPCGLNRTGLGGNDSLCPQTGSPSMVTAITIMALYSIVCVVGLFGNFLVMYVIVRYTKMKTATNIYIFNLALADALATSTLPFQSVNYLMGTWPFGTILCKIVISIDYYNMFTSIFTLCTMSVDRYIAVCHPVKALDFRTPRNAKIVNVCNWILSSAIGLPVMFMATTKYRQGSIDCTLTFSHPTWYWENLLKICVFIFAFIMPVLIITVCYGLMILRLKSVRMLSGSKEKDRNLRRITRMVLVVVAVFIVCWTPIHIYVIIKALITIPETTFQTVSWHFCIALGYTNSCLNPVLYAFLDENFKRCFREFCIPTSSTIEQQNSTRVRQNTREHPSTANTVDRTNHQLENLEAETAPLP

| Compound | pKi [1] | pKi (Mu-type opioid receptor) | Ratio Ki (Rattus norvegicus) | pKi [2] |
| --- | --- | --- | --- | --- |
| COc1ccc2c(c1OC)[C@]13CCN(CC4CC4)[C@H](C2)[C@]1(O)Cc1c([nH]c2ccccc12)C3 | 5.84 | 5.76 | 90 | 7.72 |
| CN1CC[C@]23c4c5ccc(O)c4O[C@H]2c2[nH]c4ccccc4c2C[C@@]3(O)[C@H]1C5 [OXYMORPHINDOLE CHLORIDE] | 6.29 | 6.98 | 115 | 9.05 |
| COc1c(O)ccc2c1[C@]13CCN(CC4CC4)[C@H](C2)[C@]1(O)Cc1c([nH]c2ccccc12)C3 | 7.10 | 7.24 | 145 | 9.40 |
| COc1c(O)ccc2c1[C@]13CCN(C)[C@H](C2)[C@]1(O)Cc1c([nH]c2ccccc12)C3 | 6.24 | 6.32 | 105 | 8.35 |
| COc1ccc2c(c1OC)[C@]13CCN(C)[C@H](C2)[C@]1(O)Cc1c([nH]c2ccccc12)C3 | < 5.15 | 5.12 | 185 | 7.39 |
